Measurements: patent US12263172B2, “Toll-like receptor agonists for use in the treatment of hepatitis b” (priority 2019, dated 2025)
Values joined by “and” are separate entries in the source; they are usually repeats but may differ in a detail not shown here. Identical values can stand only once.

Assay: Phase 1 single-ascending dose (Part 1): safety and tolerability in healthy adults
Type: in vivo, human
Method: This ongoing trial is a Phase 1 randomized, double-blind, placebo-controlled study in male and female healthy adult volunteers aged 18-55 years. All volunteers provided written, informed consent.
All volunteers were followed up for 4 weeks and safety and tolerability were continuously assessed throughout the study. All adverse events (AEs) were recorded from the time of consent to the completion visit and were graded using the DAIDS toxicity grading scale. Volunteers also underwent physical examinations, electrocardiograms, vital sign checks and clinical laboratory parameters (chemistry, haematology, urinalysis).

CCCCOc1nc(N)c2[nH]cc(Cc3ccc(CN4CCCC4)cc3)c2n1 [Compound 4]
subjects with at least one SAE (single dose 1.25 mg fasted): 0 n (%)
subjects with at least one fatal AE (single dose 1.25 mg fasted): 0 n (%)
subjects with at least one grade 1 AE (single dose 1.25 mg fasted): 7 (87.5%) n (%)
subjects with at least one grade 2 AE (single dose 1.25 mg fasted): 1 (12.5%) n (%)
subjects with at least one grade 3 or 4 AE (single dose 1.25 mg fasted): 0 n (%)
subjects with fever and flu-like symptoms (flu-like AEs and lymphopenia) (single dose 1.25 mg fasted): 3 and 3/8
treatment-related AE: Any AE (single dose 1.25 mg fasted): 6 (75.0%) n (%)
treatment-related AE: Chills (single dose 1.25 mg fasted): 0 n (%)
treatment-related AE: Dizziness (single dose 1.25 mg fasted): 0 n (%)
treatment-related AE: General disorders and administration site conditions (single dose 1.25 mg fasted): 3 (37.5%) n (%)
treatment-related AE: Headache (single dose 1.25 mg fasted): 4 (50.0%) n (%)
treatment-related AE: Hypertension (single dose 1.25 mg fasted): 0 n (%)
treatment-related AE: Myalgia (single dose 1.25 mg fasted): 3 (37.5%) n (%)
treatment-related AE: Nervous system disorders (single dose 1.25 mg fasted): 4 (50.0%) n (%)
treatment-related AE: Oropharyngeal pain (single dose 1.25 mg fasted): 2 (25.0%) n (%)
treatment-related AE: Pyrexia (single dose 1.25 mg fasted): 3 (37.5%) n (%)
treatment-related AE: Respiratory, thoracic and mediastinal disorders (single dose 1.25 mg fasted): 2 (25.0%) n (%)
treatment-related AE: Vascular disorder (single dose 1.25 mg fasted): 0 n (%)
vital signs: Respiratory rate (brpm) Grade 1 (single dose 1.25 mg fasted): 7 (87.5%) n (%)
vital signs: Respiratory rate (brpm) Grade 2 (single dose 1.25 mg fasted): 0 n (%)
vital signs: SaO2 (%) 90% to <95% (single dose 1.25 mg fasted): 3 (37.5%) n (%)
vital signs: SaO2 (%) 95% to <98% (single dose 1.25 mg fasted): 3 (37.5%) n (%)
vital signs: Standing DBP (mmHg) Grade 1 (single dose 1.25 mg fasted): 1 (12.5%) n (%)
vital signs: Standing DBP (mmHg) Grade 2 (single dose 1.25 mg fasted): 2 (25.0%) n (%)
vital signs: Standing DBP (mmHg) Grade 3 (single dose 1.25 mg fasted): 0 n (%)
vital signs: Standing DBP (mmHg) Low (single dose 1.25 mg fasted): 0 n (%)
vital signs: Standing SBP (mmHg) Grade 1 (single dose 1.25 mg fasted): 1 (12.5%) n (%)
vital signs: Standing SBP (mmHg) Low (single dose 1.25 mg fasted): 1 (12.5%) n (%)
vital signs: Standing pulse (bpm) High (single dose 1.25 mg fasted): 1 (12.5%) n (%)
vital signs: Standing pulse (bpm) Low (single dose 1.25 mg fasted): 0 n (%)
vital signs: Supine DBP (mmHg) Grade 1 (single dose 1.25 mg fasted): 1 (12.5%) n (%)
vital signs: Supine DBP (mmHg) Low (single dose 1.25 mg fasted): 0 n (%)
vital signs: Supine SBP (mmHg) Grade 1 (single dose 1.25 mg fasted): 1 (12.5%) n (%)
vital signs: Supine SBP (mmHg) Grade 2 (single dose 1.25 mg fasted): 0 n (%)
vital signs: Supine SBP (mmHg) Low (single dose 1.25 mg fasted): 1 (12.5%) n (%)
vital signs: Supine pulse (bpm) Low (single dose 1.25 mg fasted): 0 n (%)
↑ AST Grade 3 (laboratory abnormality) (single dose 1.25 mg fasted): 0 n (%)
↑ Amylase Grade 2 (laboratory abnormality) (single dose 1.25 mg fasted): 0 n (%)
↑ Cholesterol Grade 2 (laboratory abnormality) (single dose 1.25 mg fasted): 1 (17) n (%)
↑ Creatine kinase Grade 2 (laboratory abnormality) (single dose 1.25 mg fasted): 0 n (%)
↑ Creatine kinase Grade 4 (laboratory abnormality) (single dose 1.25 mg fasted): 0 n (%)
↑ Glucose Grade 2 (laboratory abnormality) (single dose 1.25 mg fasted): 1 (13) n (%)
↑ LDL cholesterol Grade 2 (laboratory abnormality) (single dose 1.25 mg fasted): 0 n (%)
↑ LDL cholesterol Grade 3 (laboratory abnormality) (single dose 1.25 mg fasted): 1 (13) n (%)
↑ Lipase Grade 2 (laboratory abnormality) (single dose 1.25 mg fasted): 0 n (%)
↑ Pancreatic amylase Grade 2 (laboratory abnormality) (single dose 1.25 mg fasted): 0 n (%)
↑ Potassium Grade 2 (laboratory abnormality) (single dose 1.25 mg fasted): 0 n (%)
↑ Sodium Grade 2 (laboratory abnormality) (single dose 1.25 mg fasted): 1 (13) n (%)
↑ Triglycerides Grade 2 (laboratory abnormality) (single dose 1.25 mg fasted): 4 (50) n (%)
↑ Triglycerides Grade 3 (laboratory abnormality) (single dose 1.25 mg fasted): 0 n (%)
↓ Bicarbonate Grade 2 (laboratory abnormality) (single dose 1.25 mg fasted): 0 n (%)
↓ Lymphocytes Grade 2 (laboratory abnormality) (single dose 1.25 mg fasted): 1 (13) n (%)
↓ Lymphocytes Grade 4 (laboratory abnormality) (single dose 1.25 mg fasted): 0 n (%)
↓ Neutrophils Grade 2 (laboratory abnormality) (single dose 1.25 mg fasted): 0 n (%)
↓ Phosphate Grade 2 (laboratory abnormality) (single dose 1.25 mg fasted): 0 n (%)
Any AE (treatment-emergent) (single dose 1.25 mg fed): 6 (86) n (%)
Back pain Grade 1 (treatment-emergent AE) (single dose 1.25 mg fed): 0 n (%)
Chills Grade 1 (treatment-emergent AE) (single dose 1.25 mg fed): 0 n (%)
Contact dermatitis Grade 1 (treatment-emergent AE) (single dose 1.25 mg fed): 0 n (%)
Dizziness Grade 1 (treatment-emergent AE) (single dose 1.25 mg fed): 0 n (%)
ECG actual value: Heart rate (bpm) Low (single dose 1.25 mg fed): 0 n (%)
ECG actual value: QRS (ms) High (single dose 1.25 mg fed): 0 n (%)
ECG actual value: QTcB (ms) ]450; 480] (single dose 1.25 mg fed): 0 n (%)
ECG actual value: QTcF (ms) ]450; 480] (single dose 1.25 mg fed): 0 n (%)
ECG change from reference: QTcB (ms) [30; 60] (single dose 1.25 mg fed): 2 (28.6%) n (%)
ECG change from reference: QTcF (ms) [30; 60] (single dose 1.25 mg fed): 1 (14.3%) n (%)
Headache Grade 1 (treatment-emergent AE) (single dose 1.25 mg fed): 1 (14) n (%)
Headache Grade 2 (treatment-emergent AE) (single dose 1.25 mg fed): 0 n (%)
Hypertension Grade 1 (treatment-emergent AE) (single dose 1.25 mg fed): 0 n (%)
Hypertension Grade 2 (treatment-emergent AE) (single dose 1.25 mg fed): 0 n (%)
Myalgia Grade 1 (treatment-emergent AE) (single dose 1.25 mg fed): 0 n (%)
Oropharyngeal pain Grade 1 (treatment-emergent AE) (single dose 1.25 mg fed): 2 (29) n (%)
Pyrexia Grade 1 (treatment-emergent AE) (single dose 1.25 mg fed): 0 n (%)
Pyrexia Grade 2 (treatment-emergent AE) (single dose 1.25 mg fed): 0 n (%)
URTI Grade 1 (treatment-emergent AE) (single dose 1.25 mg fed): 1 (14) n (%)
lab toxicity: Amylase (U/L), upwards, Grade 1 (single dose 1.25 mg fed): 1 (14.3%) n (%)
lab toxicity: Amylase (U/L), upwards, Grade 2 (single dose 1.25 mg fed): 0 n (%)
lab toxicity: Cholesterol (mmol/L), upwards, Grade 1 (single dose 1.25 mg fed): 0 n (%)
lab toxicity: Cholesterol (mmol/L), upwards, Grade 2 (single dose 1.25 mg fed): 0 n (%)
lab toxicity: Creatine kinase (U/L), upwards, Grade 1 (single dose 1.25 mg fed): 0 n (%)
lab toxicity: Creatine kinase (U/L), upwards, Grade 2 (single dose 1.25 mg fed): 0 n (%)
lab toxicity: Creatine kinase (U/L), upwards, Grade 4 (single dose 1.25 mg fed): 0 n (%)
lab toxicity: Glucose (mmol/L), upwards, Grade 1 (single dose 1.25 mg fed): 2 (28.6%) n (%)
lab toxicity: Glucose (mmol/L), upwards, Grade 2 (single dose 1.25 mg fed): 0 n (%)
lab toxicity: LDL cholesterol (mmol/L, calculated), upwards, Grade 1 (single dose 1.25 mg fed): 1 (14.3%) n (%)
lab toxicity: LDL cholesterol (mmol/L, calculated), upwards, Grade 2 (single dose 1.25 mg fed): 0 n (%)
lab toxicity: LDL cholesterol (mmol/L, calculated), upwards, Grade 3 (single dose 1.25 mg fed): 0 n (%)
lab toxicity: Lymphocytes (giga/L), downwards, Grade 2 (single dose 1.25 mg fed): 0 n (%)
lab toxicity: Lymphocytes (giga/L), downwards, Grade 4 (single dose 1.25 mg fed): 0 n (%)
lab toxicity: Neutrophils, segmented (giga/L), downwards, Grade 1 (single dose 1.25 mg fed): 0 n (%)
lab toxicity: Neutrophils, segmented (giga/L), downwards, Grade 2 (single dose 1.25 mg fed): 0 n (%)
lab toxicity: Platelets (giga/L), downwards, Grade 1 (single dose 1.25 mg fed): 0 n (%)
lab toxicity: Sodium (mmol/L), upwards, Grade 1 (single dose 1.25 mg fed): 3 (42.9%) n (%)
lab toxicity: Sodium (mmol/L), upwards, Grade 2 (single dose 1.25 mg fed): 0 n (%)
lab toxicity: Triglycerides (mmol/L), upwards, Grade 1 (single dose 1.25 mg fed): 3 (42.9%) n (%)
lab toxicity: Triglycerides (mmol/L), upwards, Grade 2 (single dose 1.25 mg fed): 1 (14.3%) n (%)
lab toxicity: Triglycerides (mmol/L), upwards, Grade 3 (single dose 1.25 mg fed): 0 n (%)
lab toxicity: Urate (μmol/L), upwards, Grade 1 (single dose 1.25 mg fed): 0 n (%)
subjects with at least one AE (single dose 1.25 mg fed): 6 (85.7%) n (%)
subjects with at least one AE for which any study drug or study was permanently stopped (single dose 1.25 mg fed): 0 n (%)
subjects with at least one AE for which any study drug or study was temporarily stopped (single dose 1.25 mg fed): 0 n (%)
subjects with at least one AE possibly related to any study drug (single dose 1.25 mg fed): 1 (14.3%) n (%)
subjects with at least one AE possibly, probably or very likely related to any study drug (single dose 1.25 mg fed): 1 (14.3%) n (%)
subjects with at least one AE probably related to any study drug (single dose 1.25 mg fed): 0 n (%)
subjects with at least one AE very likely related to any study drug (single dose 1.25 mg fed): 0 n (%)
subjects with at least one SAE (single dose 1.25 mg fed): 0 n (%)
subjects with at least one fatal AE (single dose 1.25 mg fed): 0 n (%)
subjects with at least one grade 1 AE (single dose 1.25 mg fed): 6 (85.7%) n (%)
subjects with at least one grade 2 AE (single dose 1.25 mg fed): 0 n (%)
subjects with at least one grade 3 or 4 AE (single dose 1.25 mg fed): 0 n (%)
treatment-related AE: Any AE (single dose 1.25 mg fed): 1 (14.3%) n (%)
treatment-related AE: Chills (single dose 1.25 mg fed): 0 n (%)
treatment-related AE: Dizziness (single dose 1.25 mg fed): 0 n (%)
treatment-related AE: General disorders and administration site conditions (single dose 1.25 mg fed): 0 n (%)
treatment-related AE: Headache (single dose 1.25 mg fed): 0 n (%)
treatment-related AE: Hypertension (single dose 1.25 mg fed): 0 n (%)
treatment-related AE: Myalgia (single dose 1.25 mg fed): 0 n (%)
treatment-related AE: Nervous system disorders (single dose 1.25 mg fed): 0 n (%)
treatment-related AE: Oropharyngeal pain (single dose 1.25 mg fed): 1 (14.3%) n (%)
treatment-related AE: Pyrexia (single dose 1.25 mg fed): 0 n (%)
treatment-related AE: Respiratory, thoracic and mediastinal disorders (single dose 1.25 mg fed): 1 (14.3%) n (%)
treatment-related AE: Vascular disorder (single dose 1.25 mg fed): 0 n (%)
vital signs: Respiratory rate (brpm) Grade 1 (single dose 1.25 mg fed): 3 (42.9%) n (%)
vital signs: Respiratory rate (brpm) Grade 2 (single dose 1.25 mg fed): 0 n (%)
vital signs: SaO2 (%) 90% to <95% (single dose 1.25 mg fed): 1 (14.3%) n (%)
vital signs: SaO2 (%) 95% to <98% (single dose 1.25 mg fed): 3 (42.9%) n (%)
vital signs: Standing DBP (mmHg) Grade 1 (single dose 1.25 mg fed): 1 (14.3%) n (%)
vital signs: Standing DBP (mmHg) Grade 2 (single dose 1.25 mg fed): 2 (28.6%) n (%)
vital signs: Standing DBP (mmHg) Grade 3 (single dose 1.25 mg fed): 1 (14.3%) n (%)
vital signs: Standing DBP (mmHg) Low (single dose 1.25 mg fed): 0 n (%)
vital signs: Standing SBP (mmHg) Grade 1 (single dose 1.25 mg fed): 3 (42.9%) n (%)
vital signs: Standing SBP (mmHg) Low (single dose 1.25 mg fed): 0 n (%)
vital signs: Standing pulse (bpm) High (single dose 1.25 mg fed): 1 (14.3%) n (%)
vital signs: Standing pulse (bpm) Low (single dose 1.25 mg fed): 0 n (%)
vital signs: Supine DBP (mmHg) Grade 1 (single dose 1.25 mg fed): 1 (14.3%) n (%)
vital signs: Supine DBP (mmHg) Low (single dose 1.25 mg fed): 0 n (%)
